This experiment deals with PRKACA-PRKAR2A interaction (SmBiT-PRKACA / LgBiT-PRKAR2A), protein kinase A. Further details: NanoLuc complementation counter-screen in cell extract, PRKACA with PRKAR2A, loss of luminescence, detects NanoLuc interference. To be noted: 0.5 h, 20 µM, inhibitor.
[1] abbreviates: counter-screen for NanoLuc interference.
Where [2] appears, read: counter-screen for NanoLuc interference, Inh (PKA).

Structures can show the parent of a compound that is named as a salt. Where two headings read alike, the source gives them in different places. Ends that are not written are not given here.

`CN[C@@H](C)C(=O)N[C@H]1CN(C(=O)CC(C)C)CC[C@H]2CC[C@@H](C(=O)NC(c3ccccc3)c3ccccc3)N2C1=O` [UM0141504:01, AT-406 (SM-406)]: the “Inh (PKA)” value under setting [1] was 0.8145%. Still for that read-out and setting: then `Cc1cn(CCN2CCN(c3ccccc3-c3cc(C#N)cc(C(=O)NCCCN4CCCC4)c3)CC2)c2ccccc12` [UM0142746:01, LLY507], with 10.14%; and `CC(C)(C)c1ccc(S(=O)(=O)NCc2ccc(C(=O)Nc3cccnc3)cc2)cc1` [UM0142793:01, STF 31], with 3.916%. `CN(C)CCCN1c2ccccc2Sc2ccc(Cl)cc21` [UM0118114:03, Chlorpromazine HCl]: the “Inh (PKA)” value under setting [1] is listed as 15.72%. Turning to `CC(C)(C)OC(=O)N[C@H]1CCCCC/C=C\[C@@H]2C[C@@]2(C(=O)NS(=O)(=O)C2CC2)NC(=O)[C@@H]2C[C@@H](OC(=O)N3Cc4cccc(F)c4C3)CN2C1=O` [UM0141670:01, Danoprevir (RG7227)], under setting [1], the “Inh (PKA)” value is 3.662%. On the same count and under the same terms, in the case of `C=CC[N+]1([C@H]2C[C@H]3[C@@H]4CC[C@H]5C[C@H](O)[C@@H](N6CCOCC6)C[C@]5(C)[C@H]4CC[C@]3(C)[C@H]2OC(C)=O)CCCC1` [UM0141392:01, Rocuronium Bromide] it was 2.002%; in that of `Cc1cc(C)c2c(c1)[C@@H](N(Cc1cc(C(F)(F)F)cc(C(F)(F)F)c1)c1nnn(C)n1)CCCN2C[C@H]1CC[C@H](C(=O)O)CC1` [UM0141818:01, Evacetrapib (LY2484595)], 12.81%; in that of `COc1cc(Oc2ccnc3cc(OC)c(OC)cc23)ccc1NC(=O)NC(C)c1nccs1` (centres unmarked) [UM0141572:01, Ki20227], 11.8%.

Consider `C#C[C@]1(O)C=C[C@H]2[C@@H]3CCC4=CC(=O)CC[C@@H]4[C@H]3CC[C@@]21CC` [UM0142288:01, Gestodene], for which the “Inh (PKA)” value under setting [1] came out at 7.119%.

In the case of `CN1C(C(=O)Nc2ccccn2)=C(O)c2ccccc2S1(=O)=O` [UM0134086:02, Piroxicam], the “Inh (PKA)” value under setting [1] was 4.329%. Regarding `CN1CCN(c2ccc3nc(-c4c(N)c5c(F)cccc5[nH]c4=O)[nH]c3c2)CC1` [UM0141446:01, Dovitinib (TKI-258, CHIR-258)], the “Inh (PKA)” value under setting [2] is on record as 5.935%. Turning to `Cc1ccc(S(=O)(=O)Cc2nc(-c3ccc(C(=O)NCc4cccnc4)cc3)oc2C)cc1` [UM0142406:01, STF-118804], the “Inh (PKA)” value under setting [1] worked out at 1.65%. As to `OC[C@H]1O[C@@H](c2ccc(Cl)c(Cc3ccc(O[C@H]4CCOC4)cc3)c2)[C@H](O)[C@@H](O)[C@@H]1O` [UM0141860:01, Empagliflozin (BI 10773)], under setting [1], the “Inh (PKA)” value came out at 6.685%. Regarding `Cc1cc2c(F)c(Oc3ncnn4cc(OC[C@@H](C)OC(=O)[C@H](C)N)c(C)c34)ccc2[nH]1` [UM0141479:01, Brivanib Alaninate (BMS-582664)], the “Inh (PKA)” value under setting [1] was 33.56%. Turning to `COCCOc1ccc2c(c1)ncn2-c1ccc2cccc(N3CCC(N)CC3)c2n1` [UM0142429:01, CP-673451], the “Inh (PKA)” value under setting [1] amounted to 21.57%. Same read-out and setting: then `Cc1[nH]nc2ccc(-c3cncc(OC[C@@H](N)Cc4ccccc4)c3)cc12` [UM0142094:01, A-674563], with 19.6%. On the same count and under the same terms, in the case of `CCc1cnn2c(NCc3ccc[n+]([O-])c3)cc(N3CCCC[C@H]3CCO)nc12` [UM0142032:01, Dinaciclib (SCH727965)] it was 1.224%; in that of `CCCCCCCCCc1ccc(B(O)O)cc1` [UM0142836:01, 4-(n-nonyl) Benzeneboronic Acid], -0.3283%.

Take `NC1(Cc2ccc(Cl)cc2)CCN(c2ncnc3[nH]ccc23)CC1` [UM0142095:01, CCT128930]: the “Inh (PKA)” value under setting [1] stood at 38.25%. Turning to `Nc1ccncc1` [UM0119500:03, 4-Aminopyridine], the “Inh (PKA)” value under setting [1] is recorded as 0.4521%.

Turning to “VPMLK [UM0141837:01, Bax inhibitor peptide V5]”, under setting [1], the “Inh (PKA)” value is -2.196%.

Consider `O=C(O)c1ccc2c(c1)nc(Nc1cccc(Cl)c1)c1ccncc12` [UM0141995:01, CX-4945 (Silmitasertib)], for which, under setting [1], the “Inh (PKA)” value amounted to 36.81%. With `Cc1nc(NC(=O)N2CCC[C@H]2C(N)=O)sc1-c1ccnc(C(C)(C)C(F)(F)F)c1` [UM0142005:01, BYL-719], the “Inh (PKA)” value under setting [1] is 2.69%. Turning to `CCOC(=O)c1sc(NC(=O)c2ccco2)c(SC#N)c1C` [UM0139891:02, CBR-5884], under setting [1], the “Inh (PKA)” value turned out to be 28.46%. Regarding `Cc1cccc(-c2nn3c(c2-c2ccnc4ccc(C(N)=O)cc24)CCC3)n1` [UM0142007:01, LY2157299], the “Inh (PKA)” value under setting [1] is 1.976%. For the compound `Cc1ccc([C@@H]2O[C@H](CO)[C@@H](O)[C@H](O)[C@H]2O)cc1Cc1ccc(-c2ccc(F)cc2)s1` [UM0141997:01, Canagliflozin], the “Inh (PKA)” value under setting [1] was determined as 13.33%. Same read-out and setting: then `O=C(O)c1cc(O)c2c(c1)[C@H]([C@H]1c3cc(C(=O)O)cc(O)c3C(=O)c3c(O[C@@H]4O[C@H](CO)[C@@H](O)[C@H](O)[C@H]4O)cccc31)c1cccc(O[C@@H]3O[C@H](CO)[C@@H](O)[C@H](O)[C@H]3O)c1C2=O` [UM0142852:01, Sennoside A], with 33.8%. For `CN1CCc2nc(C(=O)N[C@@H]3C[C@@H](C(=O)N(C)C)CC[C@@H]3NC(=O)C(=O)Nc3ccc(Cl)cn3)sc2C1` [UM0141545:01, Edoxaban], the “Inh (PKA)” value under setting [2] is 0.988%. For `COc1cc(C(=O)O)ccc1NC(=O)[C@@H]1N[C@@H](CC(C)(C)C)[C@](C#N)(c2ccc(Cl)cc2F)[C@H]1c1cccc(Cl)c1F` [UM0141617:01, RG7388], the “Inh (PKA)” value under setting [1] is 51.62%.

Turning to `N#CC[C@H](C1CCCC1)n1cc(-c2ncnc3[nH]ccc23)cn1` [UM0141622:01, Ruxolitinib phosphate], the “Inh (PKA)” value under setting [2] is recorded as 28.19%. Regarding `CN(C)CCC=C1c2ccccc2CCc2ccccc21` [UM0118081:03, Amitriptyline HCl], the “Inh (PKA)” value under setting [1] was 6.05%. As to `Cn1cc(-c2ccncc2)c(-c2ccc(OCc3ccc4ccccc4n3)cc2)n1` [UM0141784:01, PF-2545920], the “Inh (PKA)” value under setting [1] is given as 39.54%. As for `CC1(C)CCC(c2ccc(Cl)cc2)=C(CN2CCN(c3ccc(C(=O)NS(=O)(=O)c4ccc(N[C@H](CCN5CCOCC5)CSc5ccccc5)c(S(=O)(=O)C(F)(F)F)c4)cc3)CC2)C1` [UM0141497:01, ABT-263 (Navitoclax)], the “Inh (PKA)” value under setting [1] is -0.2397%. The same measure, in the same setting: then `CN1[C@@H]2CC(O)C[C@H]1[C@@H]1O[C@@H]12` (some centres unmarked) [UM0142220:01, Scopine], with 1.123%; and `Cc1cn([C@H]2C[C@H](N=[N+]=[N-])[C@@H](CO)O2)c(=O)[nH]c1=O` [UM0142451:01, Zidovudine], with 1.207%; and `Cc1cccc(Nc2nc(-c3ccncc3)cs2)c1` [UM0142421:01, STF-62247], with 25.96%. `Cc1cccc(Cc2c[nH]cn2)c1C` [UM0142216:01, Detomidine HCl]: the “Inh (PKA)” value under setting [1] came to 4.249%. On to `Cc1cccc(C)c1NC1=NCCCS1` [UM0134421:02, Xylazine HCl], for which the “Inh (PKA)” value worked out at 1.103%.

`CN(C)C/C=C/C(=O)Nc1ccc(C(=O)Nc2cccc(Nc3ncc(Cl)c(-c4c[nH]c5ccccc45)n3)c2)cc1` [UM0142143:01, THZ1]: the “Inh (PKA)” value under setting [1] was 81.51%. `CCN1C[C@H](C)n2c(c(O)c3c(=O)n(Cc4ccc(F)c(Cl)c4)nc(C(=O)NC)c32)C1=O` [UM0141692:01, MK-2048]: the “Inh (PKA)” value under setting [1] stood at 3.571%. With `Nc1nccs1` [UM0120610:02, Aminothiazole], the “Inh (PKA)” value under setting [1] was determined as 1.156%.

The values are drawn from article PMC9995496, “A screen for MeCP2-TBL1 interaction inhibitors using a luminescence-based assay” (Scientific Reports, 2023).
